Data as given in patent US20070021434A1, “NON-NUCLEOSIDE ANTI-HEPACIVIRUS AGENTS AND USES THEREOF” (Migenix Inc., priority 2005, published 2007).
pIC50: −log10 of the molar value.

Biological target: HCV RdRp (NS5B) (UniProt P26663)
Assay type: biochemical, hepatitis C virus

Chain of HCV RdRp (NS5B) (P26663 whole entry, looked up): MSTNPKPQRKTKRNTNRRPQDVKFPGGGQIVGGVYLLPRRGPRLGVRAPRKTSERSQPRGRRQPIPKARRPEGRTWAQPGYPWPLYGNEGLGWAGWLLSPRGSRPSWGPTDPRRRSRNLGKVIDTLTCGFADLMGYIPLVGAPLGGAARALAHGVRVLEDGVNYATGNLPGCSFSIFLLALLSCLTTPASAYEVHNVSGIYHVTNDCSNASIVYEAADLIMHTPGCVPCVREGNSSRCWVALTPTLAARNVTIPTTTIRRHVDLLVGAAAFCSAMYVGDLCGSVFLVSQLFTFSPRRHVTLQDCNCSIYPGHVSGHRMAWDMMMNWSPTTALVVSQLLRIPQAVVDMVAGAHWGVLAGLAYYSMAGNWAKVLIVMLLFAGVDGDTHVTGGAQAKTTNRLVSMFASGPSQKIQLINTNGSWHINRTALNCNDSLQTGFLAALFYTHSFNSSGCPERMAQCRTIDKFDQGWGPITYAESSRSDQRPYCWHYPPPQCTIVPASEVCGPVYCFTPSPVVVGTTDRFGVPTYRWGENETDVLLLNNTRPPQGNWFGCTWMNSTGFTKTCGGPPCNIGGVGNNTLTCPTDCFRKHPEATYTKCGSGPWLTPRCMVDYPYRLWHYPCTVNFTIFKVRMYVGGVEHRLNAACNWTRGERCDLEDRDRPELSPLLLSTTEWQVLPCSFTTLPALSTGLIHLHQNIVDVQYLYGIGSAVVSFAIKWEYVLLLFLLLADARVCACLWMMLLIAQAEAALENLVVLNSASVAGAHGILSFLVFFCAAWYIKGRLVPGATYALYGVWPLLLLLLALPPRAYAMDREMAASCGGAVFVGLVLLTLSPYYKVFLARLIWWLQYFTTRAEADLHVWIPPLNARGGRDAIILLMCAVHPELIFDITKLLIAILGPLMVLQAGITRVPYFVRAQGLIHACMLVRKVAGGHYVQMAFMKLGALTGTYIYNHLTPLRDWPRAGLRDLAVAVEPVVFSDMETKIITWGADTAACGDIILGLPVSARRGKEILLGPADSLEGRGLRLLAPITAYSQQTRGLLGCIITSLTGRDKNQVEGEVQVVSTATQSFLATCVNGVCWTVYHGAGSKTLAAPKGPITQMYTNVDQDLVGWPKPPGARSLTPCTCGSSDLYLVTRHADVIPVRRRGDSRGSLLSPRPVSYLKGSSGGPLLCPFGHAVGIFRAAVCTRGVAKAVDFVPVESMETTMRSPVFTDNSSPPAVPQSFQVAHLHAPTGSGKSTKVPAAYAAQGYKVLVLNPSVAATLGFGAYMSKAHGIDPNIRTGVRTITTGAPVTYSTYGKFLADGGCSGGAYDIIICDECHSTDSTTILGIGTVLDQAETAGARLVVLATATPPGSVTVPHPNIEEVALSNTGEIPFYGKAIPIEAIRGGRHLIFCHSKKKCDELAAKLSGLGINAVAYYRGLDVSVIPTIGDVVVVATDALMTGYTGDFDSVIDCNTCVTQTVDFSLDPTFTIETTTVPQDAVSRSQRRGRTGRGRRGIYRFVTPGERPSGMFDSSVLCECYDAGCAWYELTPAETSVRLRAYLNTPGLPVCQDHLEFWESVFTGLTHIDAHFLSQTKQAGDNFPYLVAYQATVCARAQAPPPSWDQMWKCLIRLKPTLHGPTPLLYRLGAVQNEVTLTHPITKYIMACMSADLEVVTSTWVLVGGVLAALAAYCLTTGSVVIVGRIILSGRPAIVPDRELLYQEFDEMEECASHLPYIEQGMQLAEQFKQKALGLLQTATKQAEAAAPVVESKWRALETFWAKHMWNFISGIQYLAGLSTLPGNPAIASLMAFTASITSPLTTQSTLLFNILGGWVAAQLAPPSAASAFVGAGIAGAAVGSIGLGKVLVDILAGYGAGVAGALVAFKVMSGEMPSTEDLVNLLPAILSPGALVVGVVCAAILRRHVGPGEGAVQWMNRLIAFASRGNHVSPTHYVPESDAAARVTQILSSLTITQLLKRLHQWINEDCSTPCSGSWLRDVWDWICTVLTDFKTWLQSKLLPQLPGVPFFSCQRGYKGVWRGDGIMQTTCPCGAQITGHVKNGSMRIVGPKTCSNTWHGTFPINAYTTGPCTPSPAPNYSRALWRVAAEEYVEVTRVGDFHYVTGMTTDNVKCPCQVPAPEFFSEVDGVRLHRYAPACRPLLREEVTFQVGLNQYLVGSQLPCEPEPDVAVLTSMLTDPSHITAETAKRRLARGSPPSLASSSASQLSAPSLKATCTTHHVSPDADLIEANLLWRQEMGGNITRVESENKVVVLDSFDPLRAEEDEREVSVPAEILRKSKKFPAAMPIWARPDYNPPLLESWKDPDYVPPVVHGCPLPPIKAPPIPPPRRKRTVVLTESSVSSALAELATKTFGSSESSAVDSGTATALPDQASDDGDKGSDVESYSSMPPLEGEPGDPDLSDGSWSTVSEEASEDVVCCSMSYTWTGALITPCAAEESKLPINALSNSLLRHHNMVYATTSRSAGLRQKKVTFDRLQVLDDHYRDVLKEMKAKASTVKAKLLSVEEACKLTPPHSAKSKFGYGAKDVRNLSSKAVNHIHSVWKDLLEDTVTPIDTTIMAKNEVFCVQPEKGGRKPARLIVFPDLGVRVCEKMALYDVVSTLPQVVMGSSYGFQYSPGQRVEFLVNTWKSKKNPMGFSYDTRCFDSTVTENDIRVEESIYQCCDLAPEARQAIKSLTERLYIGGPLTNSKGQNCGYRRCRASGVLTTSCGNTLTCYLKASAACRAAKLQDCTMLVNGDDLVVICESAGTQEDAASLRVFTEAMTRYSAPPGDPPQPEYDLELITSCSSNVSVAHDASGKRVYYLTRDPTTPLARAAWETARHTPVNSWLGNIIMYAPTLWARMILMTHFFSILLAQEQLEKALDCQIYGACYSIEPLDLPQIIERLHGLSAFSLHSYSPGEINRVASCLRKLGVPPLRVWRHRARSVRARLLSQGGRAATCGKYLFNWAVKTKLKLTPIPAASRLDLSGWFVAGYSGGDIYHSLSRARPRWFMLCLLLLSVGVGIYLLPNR

| Structure (SMILES) | pIC50 |
| --- | --- |
| Cc1ccc(NC(=O)C(CCCNC(=N)N(C)C)NC(=O)OCC2c3ccccc3-c3ccccc32)cc1 [Compound 111, (S)-[4-(3,3-DIMETHYL-GUANIDINO)-1-P-TOLYLCARBAMOYL-BUTYL]-CARBAMIC ACID 9H-FLUOREN-9-YLMETHYL ESTER] | < 4.30 |
| Cc1ccc(NC(=O)C(CCCCN)NC(=O)CNCc2ccccc2C(F)(F)F)cc1 [Compound 350, (S)-6-AMINO-2-[2-(2-TRIFLUOROMETHYL-BENZYLAMINO)-ACETYLAMINO]-HEXANOIC ACID P-TOLYLAMIDE] | < 4.30 |
| Cc1ccc(NC(=O)[C@H](CCCCN)NC(=O)Nc2ccc(OCc3cc(F)cc(F)c3)cc2)cc1 [Compound 256, (S)-6-AMINO-2-{3-[4-(3,5-DIFLUORO-BENZYLOXY)-PHENYL]-UREIDO}-HEXANOIC ACID P-TOLYLAMIDE] | < 4.30 |
| Cc1ccc(NC(=O)C(CCCCN)NC(=O)CN(c2ccccc2)C2CCCCC2)cc1 [Compound 354, (S)-6-AMINO-2-[2-(CYCLOHEXYL-PHENYL-AMINO)-ACETYLAMINO]-HEXANOIC ACID P-TOLYLAMIDE] | < 4.30 |
| NCCCC[C@@H](NC(=O)NCc1ccc(Cl)cc1)C(=O)Nc1ccc(C2CCCCC2)cc1 [Compound 164, (R)-6-AMINO-2-[3-(4-CHLORO-BENZYL)-UREIDO]-HEXANOIC ACID (4-CYCLOHEXYL-PHENYL)-AMIDE] | > 5.00 |
| Cc1ccc(NC(=O)C(CCCCN)NC(=O)Nc2ccc(C=Cc3ccccc3)cc2)cc1 [Compound 236, (S)-6-AMINO-2-[3-(4-STYRYL-PHENYL)-UREIDO]-HEXANOIC ACID P-TOLYLAMIDE] | > 5.00 |
| Cc1ccc(NC(=O)C(CCCCN)NC(=O)Nc2ccc(-c3ccccc3)cc2)cc1 [Compound 171, (R)-6-AMINO-2-(3-BIPHENYL-4-YL-UREIDO)-HEXANOIC ACID P-TOLYLAMIDE] | 4.30 to 5.00 |
| Cc1ccc(NC(=O)C(CCC(=O)O)NC(=O)OCC2c3ccccc3-c3ccccc32)cc1 [Compound 372, (S)-4-(9H-FLUOREN-9-YLMETHOXYCARBONYLAMINO)-4-P-TOLYLCARBAMOYL-BUTYRIC ACID] | < 4.30 |
| Cc1cc2cc(NC(=O)[C@H](Cc3ccc(CN)cc3)NC(=O)Nc3ccc(OCc4ccccc4)cc3)ccc2[nH]1 [Compound 227, (S)-3-(4-AMINOMETHYL-PHENYL)-2-[3-(4-BENZYLOXY-PHENYL)-UREIDO]-N-(2-METHYL-1H-INDOL-5-YL)-PROPIONAMIDE] | > 5.00 |
| Cc1ccc(NC(=O)C(CCCCN)NC(=O)Nc2cccc3ccccc23)cc1 [Compound 71, (S)-6-AMINO-2-(3-NAPHTHALEN-1-YL-UREIDO)-HEXANOIC ACID P-TOLYLAMIDE] | < 4.30 |
| Cc1ccc(NC(=O)[C@@H](CCCCN)NC(=O)Nc2cccc(OCc3ccccc3)c2)cc1 [Compound 205, (R)-6-AMINO-2-[3-(3-BENZYLOXY-PHENYL)-UREIDO]-HEXANOIC ACID P-TOLYLAMIDE] | < 4.30 |
| Cc1ccc(NC(=O)[C@H](CCCCN)NS(=O)(=O)c2ccc(Cl)cc2)cc1 [Compound 391, (S)-6-AMINO-2-(4-CHLORO-BENZENESULFONYLAMINO)-HEXANOIC ACID P-TOLYLAMIDE] | < 4.30 |
| CC(=O)NCC(=O)N1CCN(C(=O)OCC2c3ccccc3-c3ccccc32)C(CC(=O)Nc2ccc(C)cc2)C1 (stereo not drawn) [Compound 186, 4-(2-ACETYLAMINO-ACETYL)-2-(P-TOLYLCARBAMOYL-METHYL)-PIPERAZINE-1-CARBOXYLIC ACID 9H-FLUOREN-9-YLMETHYL ESTER] | < 4.30 |
| Cc1ccc(NC(=O)[C@H](CCCCN)NC(=O)Nc2ccc(OCc3cccc(F)c3)cc2)cc1 [Compound 249, (S)-6-AMINO-2-{3-[4-(3-FLUORO-BENZYLOXY)-PHENYL]-UREIDO}-HEXANOIC ACID P-TOLYLAMIDE] | 4.30 to 5.00 |
| CCCC[C@H](NC(=O)OCC1c2ccccc2-c2ccccc21)C(=O)Nc1ccc(CN(C(=O)c2ccco2)C2CCCCC2)cc1 [Compound 37, (S)-[1-(4-{[CYCLOHEXYL-(FURAN-2-CARBONYL)-AMINO]-METHYL}-PHENYLCARBAMOYL)-PENTYL]-CARBAMIC ACID 9H-FLUOREN-9-YLMETHYL ESTER] | < 4.30 |
| Cc1ccc(NC(=O)[C@H](CCCCN)NC(=O)CNc2cccc(F)c2)cc1 [Compound 360, (S)-6-AMINO-2-[2-(3-FLUORO-PHENYLAMINO)-ACETYLAMINO]-HEXANOIC ACID P-TOLYLAMIDE] | 4.30 to 5.00 |
| Cc1ccc(NC(=O)[C@@H](CCCCN)NC(=O)OCC2c3ccccc3-c3ccccc32)cc1 [Compound 20, (S)-(5-AMINO-1-P-TOLYLCARBAMOYL-PENTYL)-CARBAMIC ACID 9H-FLUOREN-9-YLMETHYL ESTER] | 4.30 to 5.00 |
| COC(=O)c1ccc(C(=O)NC(C)(C)C(=O)Nc2ccc(CN(C(=O)c3ccco3)C3CCCCC3)cc2)cc1 [Compound 3, N-[1-(4-{[CYCLOHEXYL-(FURAN-2-CARBONYL)-AMINO]-METHYL}-PHENYLCARBAMOYL)-1-METHYL-ETHYL]-TERE[…] METHYL ESTER] | < 4.30 |
| Cc1ccc(NC(=O)[C@H](CCCCN)NC(=O)Nc2ccc(OCc3ccc([N+](=O)[O-])cc3)cc2)cc1 [Compound 196, (S)-6-AMINO-2-{3-[4-(4-NITRO-BENZYLOXY)-PHENYL]-UREIDO}-HEXANOIC ACID P-TOLYLAMIDE] | 4.30 to 5.00 |
| NCCCC[C@H](NC(=O)Nc1ccc(OCc2ccccc2)cc1)C(=O)NC1CC1 [Compound 266, (S)-6-AMINO-2-[3-(4-BENZYLOXY-PHENYL)-UREIDO]-HEXANOIC ACID CYCLOPROPYLAMIDE] | < 4.30 |

| Structure (SMILES) | pIC50 |
| --- | --- |
| Cc1ccc(NC(=O)[C@H](CCCCN)NS(=O)(=O)c2ccc(Cl)cc2Cl)cc1 [Compound 393, (S)-6-AMINO-2-(2,4-DICHLORO-BENZENESULFONYLAMINO)-HEXANOIC ACID P-TOLYLAMIDE] | < 4.30 |
| Cc1ccc(NC(=O)C(CCCCNC(=O)CN)NC(=O)OCC2c3ccccc3-c3ccccc32)cc1 [Compound 176, (S)-[5-(2-AMINO-ACETYLAMINO)-1-P-TOLYLCARBAMOYL-PENTYL]-CARBAMIC ACID 9H-FLUOREN-9-YLMETHYL ESTER] | > 5.00 |
| NCCCC[C@@H](NC(=O)NC1c2ccccc2-c2ccccc21)C(=O)Nc1ccc(C2CCCCC2)cc1 [Compound 195, (R)-6-AMINO-2-[3-(9H-FLUOREN-9-YL)-UREIDO]-HEXANOIC ACID (4-CYCLOHEXYL-PHENYL)-AMIDE] | > 5.00 |
| CCCCNC(=O)[C@H](CCCCN)NC(=O)Nc1ccc(OCc2ccccc2)cc1 [Compound 258, (S)-6-AMINO-2-[3-(4-BENZYLOXY-PHENYL)-UREIDO]-HEXANOIC ACID BUTYLAMIDE] | < 4.30 |
| NCCC[C@H](NC(=O)OCC1c2ccccc2-c2ccccc21)C(=O)Nc1ccc(CN(C(=O)c2ccco2)C2CCCCC2)cc1 [Compound 15, (S)-[4-AMINO-1-(4-{[CYCLOHEXYL-(FURAN-2-CARBONYL)-AMINO]-METHYL}-PHENYLCARBAMOYL)-BUTYL]-CARBAMIC ACID 9H-FLUOREN-9-YLMETHYL ESTER] | 4.30 to 5.00 |
| NCCCC[C@H](NC(=O)Nc1ccc(OCc2ccccc2)cc1)C(=O)Nc1nc2ccccc2s1 [Compound 303, (S)-6-AMINO-2-[3-(4-BENZYLOXY-PHENYL)-UREIDO]-HEXANOIC ACID BENZOTHIAZOL-2-YLAMIDE] | < 4.30 |
| Cc1ccc(NC(=O)[C@H](CCCCN)NC(=O)CNc2ccccc2F)cc1 [Compound 359, (S)-6-AMINO-2-[2-(2-FLUORO-PHENYLAMINO)-ACETYLAMINO]-HEXANOIC ACID P-TOLYLAMIDE] | < 4.30 |
| Cc1ccc(NC(=O)C(CC(=O)O)NC(=O)OCC2c3ccccc3-c3ccccc32)cc1 [Compound 370, (S)-3-(9H-FLUOREN-9-YLMETHOXYCARBONYLAMINO)-NR-P-TOLYL-[…]] | < 4.30 |
| Cc1ccc(NC(=O)[C@H](CCCCN)NC(=O)NCc2ccc(Cl)c(Cl)c2)cc1 [Compound 140, (S)-6-AMINO-2-[3-(3,4-DICHLORO-BENZYL)-UREIDO]-HEXANOIC ACID P-TOLYLAMIDE] | 4.30 to 5.00 |
| Cc1ccc(NC(=O)C(CCO)NC(=O)OCC2c3ccccc3-c3ccccc32)cc1 [Compound 374, (S)-(3-HYDROXY-1-P-TOLYLCARBAMOYL-PROPYL)-CARBAMIC ACID 9H-FLUOREN-9-YLMETHYL ESTER] | < 4.30 |
| Cc1ccc(NC(=O)CN(CCCCN)C(=O)Nc2ccc(OCc3ccccc3)cc2)cc1 [Compound 278, 2-[1-(4-AMINO-BUTYL)-3-(4-BENZYLOXY-PHENYL)-UREIDO]-N-P-TOLYL-ACETAMIDE] | 4.30 to 5.00 |
| Cc1ccc(CNCC(=O)NC(CCCCN)C(=O)Nc2ccc(C)cc2)cc1 [Compound 340, (S)-6-AMINO-2-[2-(4-METHYL-BENZYLAMINO)-ACETYLAMINO]-HEXANOIC ACID P-TOLYLAMIDE] | < 4.30 |
| Cc1ccc(NC(=O)C(CCCCN)NC(=O)c2ccccc2-c2ccccc2)cc1 [Compound 54, (S)-BIPHENYL-2-CARBOXYLIC ACID (5-AMINO-1-P-TOLYLCARBAMOYL-PENTYL)-AMIDE] | < 4.30 |
| Cc1ccc(NC(=O)C(CCCN)NC(=O)OCC2c3ccccc3-c3ccccc32)cc1 [Compound 102, (R)-(4-AMINO-1-P-TOLYLCARBAMOYL-BUTYL)-CARBAMIC ACID 9H-FLUOREN-9-YLMETHYL ESTER] | < 4.30 |
| CC(C)(C)c1ccc(NC(=O)[C@H](Cc2ccc(CN)cc2)NC(=O)NC(c2ccccc2)c2ccccc2)cc1 [Compound 151, (S)-3-(4-AMINOMETHYL-PHENYL)-2-(3-BENZHYDRYL-UREIDO)-N-(4-TERT-BUTYL-PHENYL)-PROPIONAMIDE] | > 5.00 |
| COc1ccc(S(=O)(=O)N[C@@H](CCCCN)C(=O)Nc2ccc(C)cc2)cc1OC [Compound 386, (S)-6-AMINO-2-(3,4-DIMETHOXY-BENZENESULFONYLAMINO)-HEXANOIC ACID P-TOLYLAMIDE] | < 4.30 |
| Cc1ccc(NC(=O)C(CN)NC(=O)OCC2c3ccccc3-c3ccccc32)cc1 [Compound 401, (R)-(2-AMINO-1-P-TOLYLCARBAMOYL-ETHYL)-CARBAMIC ACID 9H-FLUOREN-9-YLMETHYL ESTER] | < 4.30 |
| Cc1ccc(NC(=O)C(Cc2ccc(CN)cc2)NC(=O)Nc2ccc3c(c2)Cc2ccccc2-3)cc1 [Compound 147, (S)-3-(4-AMINOMETHYL-PHENYL)-2-[3-(9H-FLUOREN-2-YL)-UREIDO]-N-P-TOLYL-PROPIONAMIDE] | > 5.00 |
| NCCCC[C@H](NC(=O)Nc1ccc(OCc2ccccc2)cc1)C(=O)Nc1ccc2c(c1)CCC2 [Compound 283, (S)-6-AMINO-2-[3-(4-BENZYLOXY-PHENYL)-UREIDO]-HEXANOIC ACID INDAN-5-YLAMIDE] | 4.30 to 5.00 |
